# Measurements as given in patent US20250035641A1, “COMPOSITIONS AND METHODS RELATED TO PROTEIN LABELING” (The Chinese University of Hong Kong, priority 2023, published 2025).
# What was measured:
# HTN-BRD4 = target: T1, HTN-BRD4 (Homo sapiens, UniProt O60885); test: Pulse-chase assay (HTN-BRD4 engagement in cells); format: cell-based; details: 5 μM, within 15 mins treatment, HEK293T HTN-BRD4:fOGT 20:1
# T1 construct: HaloTag fragment; expressed in transfected cells; host or cells: HEK293T
# Procedure: For HTN-BRD4, as the OGTAC-1 to 3 were designed to be irreversibly linked to it, we developed a pulse-chase assay. […] All of three OGTACs efficiently reached HTN-BRD4, fully occupied the protein within 4 h. OGTAC 1 ranked first among three OGTACs, achieving […] 90% engagement within 15 mins treatment.
# 1×10^5 HEK293T cells were seeded in each well of 12 well plate. After cells attached, transfection reagents and plasmids were prepared and added in DMEM. After 24 h transfection, media were replaced by fresh warm complete media with DMSO or compounds. After certain time of OGTACs treatment, media in wells were replaced by fresh warm media with 5 μM rhodamine ligand. The cells were incubated in 37° C.′ for 15 mins. Then, media were aspirated and 100 μL IP lysis buffer (Thermo Scientific 87788) supplemented with 20 μM OGA inhibitor (Thiamet G, Bidepharm BD571819) and 100X protease inhibitor (MedChemExpress. HY-K0010) (referred as complete IP lysis buffer in the later paragraph) was added to each well. The lysate was incubated on ice for 20 min, spun down at 14,000 RPM at 4° C. for 15 mins, and the supernatant were collected for bicinchoninic acid (BCA) assay and normalized to a final 2 mg/mL. […] After running, in gel fluorescence at rhodamine channel (545/575 nm) was analysed by Bio-Rad ChemiDoc MP Imaging System. […]
# endogenous BRD4 = target: T2, endogenous BRD4 (Homo sapiens, UniProt O60885); test: IP-WB of endogenous BRD4 in cell line stably expressing fOGT; format: cell-based
# T2 construct: endogenous BRD4 in cell line stably expressing fOGT; endogenous in cells
# Description: We next pursued the induction of POI O-GlcNAcylation independent of Halotag; this could facilitate the induction of O-GlcNAcylation on endogenous POIs for their functional dissection. […] As OGTAC-4 directly recruit BRD4, we first try to assess its potency on endogenous BRD4 in cell line stably expressing fOGT. […] Then, we overexpressed BRD4 together with fOGT in HEK293T cells to accommodate the readout to fit in IP-WB detection limit. As expected, in the co-expression system, we validated the O-GlcNAcylation inducing effect of OGTAC-4. […] Of note, OGTAC-4 promoted BRD4 O-GlcNAcylation and the formation of a stable ternary complex between BRD4 and fOGT at concentrations as low as 3 nM (FIG. 4C & FIG. 14). […] This may be due to the sub-stoichiometric catalytic activity of OGTAC-4; at lower concentration, OGTAC-4 can still be effective because after enzymatic transfer of O-GlcNAc from fOGT active site to BRD4, the BRD4 would dissociate from the original ternary complex and other unmodified BRD4 could be recruited to fOGT by OGTAC-4. However, OGTAC-1 covalently linked to HTN-BRD4, and AP1867 binds tightly to fOGT. therefore, once HTN-BRD4 dissociated, free OGTAC-1 molecules may form binary complex with fOGT and inhibit other HTN-BRD4 from formation of new ternary complex. […]
SMILES,engagement of HTN-BRD4 (HTN-BRD4) [%],"O-GlcNAc signal on endogenous BRD4 (IP-WB, RL2) (endogenous BRD4)"
"CC[C@H](C(=O)N1CCCC[C@H]1C(=O)O[C@H](CCc1ccc(OC)c(OC)c1)c1cccc(OCC(=O)NCCOCCOCCCCCCCl)c1)c1cc(OC)c(OC)c(OC)c1 [OGTAC-1, (R)-1-(3-(2-((2-(2-((6-chlorohexyl)oxy)ethoxy)ethyl)amino)-2-oxoethoxy)phenyl)-3-(3,4-dimethoxyphenyl)propyl (S)-1-((S)-2-(3,4,5-trimethoxyphenyl)butanoyl) piperidine-2-carboxylate]",90,
"CC[C@H](C(=O)N1CCCC[C@H]1C(=O)O[C@H](CCc1ccc(OC)c(OC)c1)c1cccc(OCC(=O)NCCCCCCNC(=O)C[C@@H]2N=C(c3ccc(Cl)cc3)c3c(sc(C)c3C)-n3c(C)nnc32)c1)c1cc(OC)c(OC)c(OC)c1 [OGTAC-4, (R)-1-(3-(2-((6-(2-((S)-4-(4-chlorophenyl)-2,3,9-trimethyl-6H-thieno[3,2-f[]8 1,2,4]triazolo[4,3-a][1,4]diazepin-6-yl)acetamido)hexyl)amino)-2-oxoethoxy)phenyl)-3-(3,4-dimethoxyphenyl)propyl (S)-1-((S)-2-(3,4,5-trimethoxyphenyl)butanoyl)piperidine-2-carboxylate]",,failed to detect any signal
